“Also recorded” adds a separate entry of the source.

One data set has as its system LNCaP cells. Put plainly: Cell proliferation (DNA content, DAPI), LNCaP. The note with it: 3 nM DHT, seven days, PP 100 nM, HH 100 nM, BiC 1 μM. The format is cell-based, human. An excerpt:
(§1) LN-AR cells were created by retroviral infection of a high-expressing AR vector into LNCaP cells, and proliferate independent of androgen in cell culture, unlike their parental line (Chen, C. D., et al., Molecular determinants of resistance to antiandrogen therapy. Nat Med, 2004. 10(1): p. 33-9). HEK293 cells were used as a control. Cells were transferred to charcoal-stripped media two days before they were split and plated in quadruplicate at a density of approximately 20,000 cells/well in 48-well plates. […] Media were changed every day, using a single preparation to ensure consistent compound concentrations. Proliferation was determined by measuring the DNA content of the cells in each well. Each day, the cells in four wells were fixed in 100% cold methanol, followed by staining for 5 min at RT with 0.2 ng/mL 4′,6-diamidino-2-phenylindole (DAPI) in PBS. The cells were washed once in PBS, then read on a fluorescence plate reader using 365/439 excitation/emission wavelengths. LAPC4 and LNCaP cells proliferated to a much greater degree in the presence of DHT, while LN-AR cells proliferated in the presence and absence of DHT.

A further data set deals with LAPC4 cells. Put plainly: Cell proliferation (DNA content, DAPI), LAPC4. The note with it: LAPC4, 3 nM DHT, seven days; PP 100 nM, HH 100 nM, BiC 1 μM. The data set is classed as cell-based, human.
From the text: as §1

The next data set deals with LN-AR cells. The data set can be described thus: Cell proliferation (DNA content, DAPI), LN-AR. The data set is classed as cell-based, human. Conditions: seven days, PP 100 nM, HH 100 nM, BiC 1 μM.
From the text: as §1

The next data set deals with HEK293 cells. Put plainly: Cell proliferation (DNA content, DAPI), HEK293 control. The data set is classed as cell-based. Conditions: HEK293, seven days; PP 100 nM, HH 100 nM, BiC 1 μM.
From the text: as §1

The subject of another data set is prostate glands of mice. The data set can be described thus: Prostate weight in treated male mice. The data set is classed as in vivo. The note with it: 5 times per week for four weeks, BiC 100 mg/kg PO, PP 1 mg/kg IP, or the combination. How it is done:
FIG. 7. […] As a positive control, nine mice were treated with castration for four weeks. Prostate glands were harvested and wet weights determined. […] Error bars represent the standard error of the mean (S.E.M.).
Animals were treated 5 times per week for four weeks. At the end of the study period, animals were sacrificed and prostate tissue weighed. After weighing, the tissue was divided in half for pathological and genetic studies. […] (FIG. 7).

Take `Cc1cc(/C=C/c2ccc3cc(N(C)C)ccc3[n+]2C)c(C)n1-c1ccccc1` [PP, pyrvinium pamoate]: the “Inhibition of cell growth” value with LNCaP cells is given as “able to inhibit the growth of all four cell lines; also recorded: exhibited growth-inhibitory properties”; in the data set on LAPC4 cells, “able to inhibit the growth of all four cell lines”. Further, in the data set with LN-AR cells, the “Inhibition of androgen-independent cell growth” value was “able to inhibit the growth of all four cell lines; also recorded: blocked growth”. The “Non-specific growth inhibition of control cells” value in the data set with HEK293 cells is reported as “Neither compound exhibited non-specific growth inhibition”. For the same molecule, the “Reduction of prostate weight” value in the data set with prostate glands of mice is given as “did not produce a statistically significant effect; also recorded: did not significantly reduce prostate size”.

The record behind these values is patent US8119660B2, “Small-molecule inhibitors of the androgen receptor” (The Regents of the University of California, priority 2007, dated 2012).
